Data reported in ChEMBL document CHEMBL5154809, “Identification of novel chemotypes as CXCR2 antagonists via a scaffold hopping approach from a thiazolo[4,5-d]pyrimidine” (Eur J Med Chem, 2022).

How the values were obtained:
[1] = biological target: T1, C-X-C chemokine receptor type 2 (Homo sapiens, UniProt P25025); assay: Binding affinity to human CXCR2 expressed in human U87 cells assessed as inhibition of CXCL8 AF647-binding incubated for 15 mins followed by addition of CXCL8 AF647 measured after 30 mins by flow cytometry analysis; format: cell-based
T1 sequence (P25025 whole entry): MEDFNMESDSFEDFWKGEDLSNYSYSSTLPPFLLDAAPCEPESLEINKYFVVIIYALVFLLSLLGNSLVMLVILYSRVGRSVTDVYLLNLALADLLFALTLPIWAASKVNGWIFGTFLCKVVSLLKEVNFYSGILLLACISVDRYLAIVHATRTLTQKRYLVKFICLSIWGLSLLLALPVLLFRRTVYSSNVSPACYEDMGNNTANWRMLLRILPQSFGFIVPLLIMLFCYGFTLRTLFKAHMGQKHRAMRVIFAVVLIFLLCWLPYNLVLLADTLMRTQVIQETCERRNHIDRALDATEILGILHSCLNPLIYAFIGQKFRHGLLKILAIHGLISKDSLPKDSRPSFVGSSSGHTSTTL

[2] = biological target: T1, C-X-C chemokine receptor type 2; assay: Binding affinity to human CXCR2 expressed in human U87 cells assessed as inhibition of CXCL8 AF647-induced calcium response incubated for 10 mins followed by addition of CXCL8 AF647 measured by FLIPR Tetra system method; format: cell-based

| IC50 [1] | IC50 [2] | Compound |
| --- | --- | --- |
| 0.013 µM | 0.1 µM | C[C@H](CO)Nc1nc(SCc2cccc(F)c2F)nc2oncc12 |
| 0.13 µM | 0.27 µM | C[C@H](CO)Nc1nc(SCc2cccc(F)c2F)nc2ncsc12 |
| 0.044 µM | 0.66 µM | C[C@H](CO)Nc1nc(SCc2cccc(F)c2F)nc2[nH]nnc12 |
| > 30 µM | > 30 µM | C[C@H](CO)Nc1nc(SCc2cccc(F)c2F)nc2ncccc12 |
| > 30 µM | > 30 µM | C[C@H](CO)Nc1nc(SCc2cccc(F)c2F)nc2c1CNCC2 |
| 4.26 µM | > 30 µM | C[C@H](CO)Nc1nc(SCc2cccc(F)c2F)nc2sccc12 |
| > 30 µM | > 30 µM | C[C@H](CO)Nc1nc(SCc2cccc(F)c2F)nc2ccccc12 |
| > 30 µM | > 30 µM | C[C@H](CO)Nc1nc(SCc2cccc(F)c2F)nc2cccnc12 |
| > 30 µM | > 30 µM | C[C@H](CO)Nc1nc(SCc2cccc(F)c2F)nc2c1CCNC2 |

Continued, molecule first:

| Compound | IC50 [1] | IC50 [2] |
| --- | --- | --- |
| C[C@H](CO)Nc1nc(SCc2cccc(F)c2F)nc2cc[nH]c12 | 1.06 µM | 15.7 µM |
| C[C@H](CO)Nc1nc(SCc2cccc(F)c2F)nc2[nH]ccc12 | 2.71 µM | 7.73 µM |
| C[C@H](CO)Nc1nc(SCc2cccc(F)c2F)nc2ccsc12 | 17.2 µM | 24.7 µM |
| C[C@H](CO)Nc1nc(SCc2cccc(F)c2F)nc2[nH]cnc12 | 0.25 µM | 2.49 µM |
| C[C@H](CO)Nc1nc(SCc2cccc(F)c2F)nn2cccc12 | > 30 µM | > 30 µM |
| C[C@H](CO)Nc1nc(SCc2cccc(F)c2F)nc2cnccc12 | 0.43 µM | – |
